Experimental data: patent publication US5212165A, “Method for rehabilitating the vasorelaxant action of the coronary arteries impaired through atherosclerosis or hypercholesterolemia employing an ACE inhibitor” (E. R. Squibb & Sons, Inc., priority 1989, dated 1993)
Like-named read-outs stand apart in the source and are kept apart here. No end group written: not given here.

Tests used:
[1] = system: vascular relaxation in response to EN-D (ACh) and EN-I (Na nitroprusside) agonists; conditions: rats, cited from earlier work; for vascular relaxations in response to EN-D (ACh) and EN-I (Na nitroprusside) agonists: oral
[2] = system: isolated aorta from hypertensive rats; conditions: cited from earlier work
angina patients = conditions: 12 angina patients; Thuermann et al; cited from earlier work
isolated rat hearts = conditions: interaction with ARG-I, ARG-II and BK; Schoelkens et al; cited from earlier work
[3] = system: alpha-adrenoceptor (isolated iliac arteries); experiment: Contractile responses to phenylephrine of isolated iliac arteries from cynomolgus monkeys; set-up: species or system cynomolgus (Macaca fascicularis) monkeys; conditions: Mean ± SEM; for EC50: Macaca fascicularis, read-out: EC50 (phenylephrine-induced contraction)
Excerpt: (§1) Twenty-four male cynomolgus (Macaca fascicularis) monkeys were divided into four groups of six animals each. During the course of the study, one of the control monkeys was sacrificed due to ill health unrelated to the study. Each group was fed a different diet for six months. The control group ate a normal diet of monkey biscuit. The cholesterol group ate a specially formulated monkey diet containing cholesterol. The cholesterol +low captopril group ate the cholesterol diet supplemented with captopril (50 mg/kg divided into two daily doses). The cholesterol+high captopril group ate the cholesterol diet and a higher total dose of captopril (100 mg/kg divided into two daily doses).
(§2) The monkeys were sedated with an intramuscular injection of ketamine (10 mg/kg), then anesthetized with pentobarbital (25 mg/kg). The iliac arteries were carefully dissected, cleaned of surrounding connective tissue, and refrigerated overnight for use the following day.
(§3) On the day of the experiment, three iliac rings (3 mm wide) from each animal were cut and mounted for isometric force recording. Each ring was attached to a micrometer for the control of muscle length and to a Grass FT.03 force transducer and Grass 7D recorder. The rings were placed in warm (37° C.), oxygenated, physiological salt solution (PSS) of the following composition (in mM): 140.0 NaCl, 4.7 KCl, 1.2 MgSO4, 1.6 CaCl2, 1.2 NaH2 PO4, 5.6 D-glucose, 2.0 2-(N-morpholino)propanesulfonic acid (MOPS, pH 7.4 at 37° C.), and 0.02 Na2 -ethylenediaminetetraacetic acid (EDTA). The rings were stretched to a preload of 5 g during a 2 hour equilibration period, then stimulated with 1 μM phenylephrine to test for viability and relaxed with 100 nM acetylcholine to test for endothelial function. Stock solutions of phenylphrine, acetylcholine, propranolol, and sodium nitroprusside were prepared daily in water; nifedipine stock solutions were prepared daily in ethanol.
(§4) Alpha-adrenoceptor and endothelial cell function were examined in the third ring from each monkey. In the presence of 0.1 μM propranolol, a cumulative concentration-response curve to phenylephrine was obtained, then the phenylephrine was washed out of the baths and the rings were allowed to relax completely. The rings were subsequently contracted with an EC50 concentration of phenylephrine (1 μM) and, following stabilization of the contraction, the rings were treated with increasing concentrations of acetylcholine, followed by 100 nM sodium nitroprusside.
(§5) Data are presented as mean±SEM. The IC50 and EC50 values were estimated by linearly interpolating from the concentration-response curves. The EC50 values for each ring were used to determine the means for each treatment group.
Phenylephrine concentration-response curves were obtained in iliac rings from all groups of monkeys.

[4] = system: phenylephrine-contracted isolated iliac arteries; experiment: Acetylcholine-induced relaxation of phenylephrine-contracted isolated iliac arteries from cynomolgus monkeys; set-up: species or system cynomolgus (Macaca fascicularis) monkeys; conditions: for maximum force generated in response to phenylephrine (before acetylcholine): non-responders excluded, mean±SEM; for EC50: Macaca fascicularis, non-responder excluded, Mean ± SEM
Excerpt: as §1, §2, §3, §4, §5
For each monkey, the EC50 for acetylcholine relaxation was calculated by linearly interpolating from the concentration-response curves. When 50% relaxation was not achieved, the value of the EC50 was set to 30 μM a value larger than any of the experimental concentrations of acetylcholine).
Linear contrast of mean ranks in the groups were constructed with a variance estimate for the contrast based on the Kruskal-Wallis statistic (Dunn 1964).
In the analyses, the following coefficients were employed: i) for an overall test, the coefficients were 3 for the cholesterol group, 1 for the control group, -1 for the cholesterol+low captopril group, and -3 for the cholesterol+high captopril group, based on prior expectations of likely results; ii) for a test of the cholesterol effect, the coefficients were 1 for the cholesterol group, -1 for the control group, 0 for the cholestrol+low captopril group, and 0 for the cholesterol+high captopril group; iii) for a test of the captopril effect, the coefficients were 0 for the cholesterol group, 1 for the […], 0 for the cholesterol+low captopril group, and -1 for the cholesterol+high captopril group.
All statistical results reported are based on one-sided tests. […]

rat mesenteric veins = conditions: cited from earlier work
[5] = system: rabbit or human platelets; conditions: in vitro; cited from earlier work
rabbit veins = conditions: in vitro; cited from earlier work
guinea pig or rat lungs = conditions: infusion through guinea pig or rat lungs; cited from earlier work
rat stomach = conditions: in vitro; cited from earlier work
[6] = system: voltage-dependent calcium channels (iliac rings); experiment: Relaxation responses to nifedipine of CaCl2-contracted iliac rings from cynomolgus monkeys; set-up: species or system cynomolgus (Macaca fascicularis) monkeys; conditions: Macaca fascicularis, contracted with 2.5 mM CaCl2 in K^+ PSS, mean±SEM
Excerpt: as §1, §2, §3
(§6) The voltage-dependent calcium channels were studied in one ring from each monkey. The protocol consisted of depleting the cells of calcium by exposing the rings to a Ca-free, EGTA (ethylene glycol-bis(β-aminoethyl ether)N,N,N',N'-tetraacetic acid) PSS (omission of CaCl2 and addition of 0.1 mM EGTA) for 30 minutes. The EGTA was subsequently removed from the tissues with three washes of Ca-free PSS (simple omission of CaCl2). Following that, the rings were bathed in Ca-free, K^+ PSS (omission of CaCl2 and isoosmotic substitution of KCl for NaCl such that the KCl concentration was 110 mM) for 30 minutes. A CaCl2 concentration-response curve was obtained by replacing the bath solution with K^+ PSS containing incremental increases in CaCl2 concentration (0.1, 0.3, 0.5, 1.0, 1.25, 1.6, and 2.5 mM). The maximal contractions, in response to 2.5 mM CaCl2, were then relaxed incrementally with nifedipine. Another iliac ring (fade control) from each monkey was subjected to the same protocol with the exception that the strips were allowed to remain contracted and the nifedipine concentration-response curve was not obtained. Some fade of the CaCl2 -induced force was observed over the time period required for the nifedipine concentration-response curve. This fade was accounted for by decreasing the amount of relaxation observed upon addition of nifedipine by the amount of fade observed in the time control from the same monkey.
Data are presented as mean±SEM. The IC50 and EC50 values were estimated by linearly interpolating from the concentration-response curves. […]

[7] = system: acute cerebral arteriospasm; conditions: after subarachnoid hemorrhage, dog, angiographic; cited from earlier work
[8] = system: delayed cerebral arteriospasm; conditions: cited from earlier work
[9] = system: delayed cerebral vasospasm of the basilar artery and its branches; conditions: by injection; Gavras et al; cited from earlier work
[10] = system: K^+ depolarized arteries (iliac rings); experiment: Contractile responses to CaCl2 in K^+ depolarized iliac rings from cynomolgus monkeys; set-up: species or system cynomolgus (Macaca fascicularis) monkeys; conditions: Mean ± SEM
Excerpt: as §1, §2, §3, §6, §5
Concentration-response curves to CaCl2 in K^+ depolarized rings were obtained following depletion of tissue calcium by repeated washing in Ca-free PSS first with, then without, EGTA. There were no differences in the responses to CaCl2 among any of the treatment groups (Table 1).

Molecule: Oc1cccc(O)c1O [pyrogallol]
- effect on ACh-induced relaxation [1]: did inhibit ACh-induced relaxations

Molecule: CCOC(=O)C(CCc1ccccc1)N[C@@H](C)C(=O)N1CCC[C@H]1C(=O)O (stereo partly drawn) [enalapril, N-(1-ethoxycarbonyl-3-phenylpropyl)-L-alanyl-L-proline]
- normalization of relaxation responses and prevention of hypertension ([2]; P.o., salt-induced hypertension, rat): ineffective
- vascular relaxations in response to EN-D (ACh) and EN-I (Na nitroprusside) agonists [1]: differentially affected vascular relaxations
- anti-ischemic effect (angina patients): shown to have an anti-ischemic effect

Molecule: COc1ccc2c(c1)c(CC(=O)O)c(C)n2C(=O)c1ccc(Cl)cc1 [Indomethacin]
- effect on relaxation responses ([2]; isolated aorta, hypertensive and normotensive rats): unaffected
- effect on ACh-induced relaxation [1]: did not prevent the effect of ACh

Molecule: CCOC(=O)[C@H](CCc1ccccc1)N[C@@H](C)C(=O)N1[C@H](C(=O)O)C[C@@H]2CCC[C@@H]21 [ramipril]
- local cardioprotective actions (isolated rat hearts): BK is involved in the local cardioprotective actions of RP

Molecule: CNC[C@H](O)c1cccc(O)c1 [phenylephrine]
- Max Force (phenylephrine-induced contraction) ([3]; Cholesterol group): 17.3 ± 3.3 g
- Max Force (phenylephrine-induced contraction) ([3]; Control group): 22.5 ± 1.6 g
- EC50 ([3]; Cholesterol group): 1200 ± 300 nM
- EC50 ([3]; Control group): 800 ± 100 nM
- maximum force generated in response to phenylephrine (before acetylcholine) ([4]; cholesterol group): 11.0 ± 2.6 g
- maximum force generated in response to phenylephrine (before acetylcholine) ([4]; control group): 14.3 ± 1.4 g

Molecule: endothelin: endothelin (EL) (CSCSSLMDKECVYFCHLDIIW; ends and bridges not checked; cysteine pairing not given here; UniProt P05305 53-73, looked up)
- vasoconstriction (rat mesenteric veins; at higher doses): vasoconstriction
- dilatation of rat mesenteric veins (rat mesenteric veins; via EDRF release): dilated rat mesenteric veins
- platelet aggregation [5]: did not aggregate rabbit or human platelets or prevent their aggregation
- contraction of rabbit veins (rabbit veins): contracted rabbit veins
- release of PG12 and TXA2 (guinea pig or rat lungs): release PG12 and TXA2
- contraction of rat stomach (rat stomach): contracted rabbit veins and rat stomach

Molecule: CC(=O)OCC[N+](C)(C)C [acetylcholine]
- EC50 ([4]; Cholesterol group, N 5, EC50 set at 30 μM if <50% relaxation): 16200 ± 7200 nM
- EC50 ([4]; Control group, N 4): 300 ± 100 nM

Molecule: COC(=O)C1=C(C)NC(C)=C(C(=O)OC)C1c1ccccc1[N+](=O)[O-] [nifedipine]
- IC50 ([6]; cholesterol group): 22.8 ± 5.6 nM
- IC50 ([6]; cholesterol+high captopril group): 11.5 ± 1.8 nM
- IC50 ([6]; cholesterol+low captopril group): 18.8 ± 6.6 nM
- IC50 ([6]; control group): 11.4 ± 2.3 nM

Molecule: CC[C@H](C)[C@H](NC(=O)[C@H](CCC(N)=O)NC(=O)[C@@H]1CCCN1C(=O)[C@H](CCCNC(=N)N)NC(=O)[C@@H]1CCCN1C(=O)[C@H](Cc1c[nH]c2ccccc12)NC(=O)[C@@H]1CCC(=O)N1)C(=O)N1CCC[C@H]1C(=O)N1CCC[C@H]1C(=O)O [teprotide]
- effect on acute cerebral arteriospasm [7]: effective
- effect on delayed established cerebral arteriospasm ([8]; dog, in vivo): could reverse that spasm as well
- release of delayed cerebral vasospasm [9]: partial or total release

Molecule: [Ca+2].[Cl-].[Cl-] [CaCl2]
- EC50 ([10]; Cholesterol group): 200000 ± 30000 nM
- Max Force (CaCl2) ([10]; Cholesterol group): 18.2 ± 1.6 g
- EC50 ([10]; Control group): 140000 ± 10000 nM
- Max Force (CaCl2) ([10]; Control group): 18.5 ± 1.1 g

Molecule: NNc1nncc2ccccc12 [hydralazine]
- vascular relaxations in response to EN-D (ACh) and EN-I (Na nitroprusside) agonists [1]: differentially affected vascular relaxations

Molecule: C[C@H](N[C@@H](CCc1ccccc1)C(=O)O)C(=O)N1CCC[C@H]1C(=O)O [MK-422]
- restoring arterial width in delayed cerebral arteriospasm ([8]; four dogs, injectable form, unpublished data, preliminary): at least as effective as teprotide
